Structures are written as SMILES.

Results on one molecule are retold here after article PMC4078884 (Chemical science (Royal Society of Chemistry : 2010), 2014).

Test [1] addresses T1, EcIspG (Escherichia coli, UniProt P62620).
T1 sequence (P62620 1-372): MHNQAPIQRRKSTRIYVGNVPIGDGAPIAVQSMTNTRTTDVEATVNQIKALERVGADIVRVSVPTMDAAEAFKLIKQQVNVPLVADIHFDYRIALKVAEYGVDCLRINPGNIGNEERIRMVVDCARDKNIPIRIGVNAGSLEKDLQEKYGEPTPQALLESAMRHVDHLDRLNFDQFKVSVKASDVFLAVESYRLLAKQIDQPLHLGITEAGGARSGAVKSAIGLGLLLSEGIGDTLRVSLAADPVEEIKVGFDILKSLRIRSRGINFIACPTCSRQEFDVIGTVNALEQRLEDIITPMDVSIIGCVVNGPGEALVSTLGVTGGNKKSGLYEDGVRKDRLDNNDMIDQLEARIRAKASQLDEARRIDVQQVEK
As to the kind of experiment: CW-EPR. It counts as binding. Particulars: 80 eq dithionite, 8 K.

Test [2] deals with T2, PaIspG (Pseudomonas aeruginosa, UniProt Q9HXJ4).
T2 sequence (Q9HXJ4 1-371): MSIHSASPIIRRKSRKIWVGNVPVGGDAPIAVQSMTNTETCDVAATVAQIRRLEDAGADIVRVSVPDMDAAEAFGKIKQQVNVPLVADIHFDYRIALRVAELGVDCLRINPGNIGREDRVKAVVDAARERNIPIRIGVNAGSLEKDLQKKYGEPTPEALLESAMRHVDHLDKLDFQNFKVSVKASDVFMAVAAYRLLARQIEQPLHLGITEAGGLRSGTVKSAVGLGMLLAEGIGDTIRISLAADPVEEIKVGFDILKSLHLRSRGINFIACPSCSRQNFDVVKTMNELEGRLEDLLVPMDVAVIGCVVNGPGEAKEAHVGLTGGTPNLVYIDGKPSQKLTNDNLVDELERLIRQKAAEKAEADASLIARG
Kind of test: CW-EPR. The format is binding. As to conditions: 80 eq dithionite, 8 K.

Turning to `C/C(=C\COP(=O)(O)OP(=O)(O)O)CS` [compound 8, thiolo-HMBPP], the CW-EPR entry in test [1] was “E. coli (A, D)”; in test [2] it was “P. aeruginosa (B, E)”.
